This note sets out measurements from ChEMBL document CHEMBL5331042, “Azole inhibitors of mushroom and human tyrosinases: Current advances and prospects of drug development for melanogenic dermatological disorders” (Eur J Med Chem, 2022).

Assay [1] addresses T1, Mushroom tyrosinase (Agaricus bisporus, UniProt O42713+Q00024+C7FF04+C7FF05). The assay can be described thus: Inhibition of mushroom tyrosinase using L-DOPA as substrate preincubated for 10 mins followed by substrate addition by absorbance based analysis.
The target in assay [2] is T1, Mushroom tyrosinase. In words: Inhibition of mushroom tyrosinase incubated for 10 mins by spectrophotometric analysis.
The target of assay [3] is T1, Mushroom tyrosinase. The assay can be described thus: Inhibition of mushroom tyrosinase using L-DOPA as substrate preincubated for 10 mins followed by substrate addition and measured after 20 mins by absorbance based analysis.

On to `O=c1oc2ccccc2cc1C1=NN(c2nc(-c3ccc(Br)cc3)cs2)C(c2ccc(O)cc2)C1` (stereo unspecified), for which the IC50 – broadly, the concentration needed to halve the response being measured – in assay [1] was determined as 230 nM. For the compound `CCCCCn1nc(-c2ccccc2)n(CC(=O)NNC(=S)Nc2ccc(Cl)cc2Cl)c1=O`, the IC50 in assay [2] is > 20000 nM. `CCCCCn1nc(-c2ccccc2)n(CC(=O)NNC(=S)Nc2cccc(Cl)c2)c1=O` came in with an IC50 in assay [2] of 5400 nM. On the same count and under the same terms, for `CCCCCn1nc(-c2ccccc2)n(CC(=O)NNC(=O)Nc2cc(Cl)cc(Cl)c2)c1=O` the value was > 20000 nM. Compound `O=c1oc2ccccc2cc1C1=NN(c2nc(-c3ccc(Br)cc3)cs2)C(c2ccccc2)C1` (stereo unspecified) showed an IC50 in assay [1] of 260 nM. For the compound `CCCCCn1nc(-c2ccccc2)n(CC(=O)NNC(=O)Nc2ccc(Cl)cc2Cl)c1=O`, the IC50 in assay [2] came out at 1.62 nM. Regarding `O=c1oc2ccccc2cc1C1=NN(c2nc(-c3ccc(Br)cc3)cs2)C(c2ccco2)C1` (stereo unspecified), in assay [1], the IC50 turned out to be 380 nM.

Consider `COc1ccccc1/C=N/c1nnc(S)s1`, for which the IC50 in assay [1] turned out to be 730 nM. The same measure, in the same setting: as for `O=c1oc2ccccc2cc1C1=NN(c2nc(-c3ccc(Br)cc3)cs2)C(c2ccc(Cl)cc2)C1` (stereo unspecified), the figure is 460 nM; as for `COc1cccc(C2CC(c3cc4ccccc4oc3=O)=NN2c2nc(-c3ccc(Br)cc3)cs2)c1O` (stereo unspecified), 37 nM; as for `CCn1c2ccccc2c2cc(C3CC(c4cc5ccccc5oc4=O)=NN3c3nc(-c4ccc(Br)cc4)cs3)ccc21` (stereo unspecified), 100 nM. Still for that read-out and setting: as for `COc1ccc(C2CC(c3cc4ccccc4oc3=O)=NN2c2nc(-c3ccc(Br)cc3)cs2)cc1[N+](=O)[O-]` (stereo unspecified), the figure is 870 nM.

In the case of `CCCCCn1nc(-c2ccccc2)n(CC(=O)NNC(=S)Nc2ccc(Br)cc2)c1=O`, the IC50 in assay [2] amounted to 19 nM.

In the case of `Oc1ccc(Br)cc1/C=N/c1nnc(S)s1`, the IC50 in assay [1] was 1970 nM. In turn, `CCCCCn1nc(-c2ccccc2)n(CC(=O)NNC(=O)Nc2cccc(C(F)(F)F)c2)c1=O` displayed an IC50 in assay [2] of 1.65 nM. In assay [1], `O=c1oc2ccccc2cc1C1=NN(c2nc(-c3ccc(Br)cc3)cs2)C(c2cc([N+](=O)[O-])ccc2O)C1` (stereo unspecified) registered an IC50 of 910 nM. With `CCCCCn1nc(-c2ccccc2)n(CC(=O)NNC(=O)Nc2ccccc2F)c1=O`, the IC50 in assay [2] is > 20000 nM.

In turn, `O=c1oc2ccccc2cc1C1=NN(c2nc(-c3ccc(Br)cc3)cs2)C(c2cc([N+](=O)[O-])ccc2Cl)C1` (stereo unspecified) yielded an IC50 in assay [1] of 28 nM. The same measure, in the same setting: as for `Oc1ccc(Cl)cc1/C=N/c1nnc(S)s1`, the figure is 1710 nM. `CN(C)c1ccc(C2CC(c3cc4ccccc4oc3=O)=NN2c2nc(-c3ccc(Br)cc3)cs2)cc1` (stereo unspecified) showed an IC50 in assay [1] of 220 nM. With `CCCCCn1nc(-c2ccccc2)n(CC(=O)NNC(=O)Nc2ccc(F)cc2)c1=O`, in assay [2], the IC50 is > 20000 nM. Same read-out and setting: for `CCCCCn1nc(-c2ccccc2)n(CC(=O)NNC(=S)Nc2ccc(F)cc2)c1=O` the value was 14 nM; for `CCCCCn1nc(-c2ccccc2)n(CC(=O)NNC(=S)Nc2ccc(F)cc2F)c1=O`, 19 nM. On the same count and under the same terms, as for `CCCCCn1nc(-c2ccccc2)n(CC(=O)NNC(=O)Nc2cccc(Br)c2)c1=O`, the figure is > 20000 nM. Compound `O=c1oc2ccccc2cc1C1=NN(c2nc(-c3ccc(Br)cc3)cs2)C(C2=CC3C=CC=CC3N2)C1` (stereo unspecified) showed a concentration for half-maximal inhibition (IC50) in assay [1] of 17 nM. Same read-out and setting: for `Oc1ccccc1/C=N/c1nnc(S)s1` the value was 780 nM; for `COc1cc(/C=N/c2nnc(S)s2)cc(OC)c1`, 5350 nM. As to `CCCCCn1nc(-c2ccccc2)n(CC(=O)NNC(=S)Nc2cccc(Br)c2)c1=O`, the IC50 in assay [2] was > 20000 nM. In assay [1], `Sc1nnc(/N=C/c2cccc(Cl)c2)s1` returned an IC50 of 4750 nM. The same measure, in the same setting: for `Sc1nnc(/N=C/c2ccc(Cl)c(Cl)c2)s1` the value was 3620 nM; for `S=c1[nH]nc(/N=C/c2ccc(Cl)cc2)s1`, 2460 nM. As for `CCCCCn1nc(-c2ccccc2)n(CC(=O)NNC(=O)Nc2cccc(F)c2)c1=O`, the IC50 in assay [2] is > 20000 nM. Take `COc1cc(OC)c(/C=N/c2nnc(S)s2)c(OC)c1`: the IC50 in assay [1] amounted to 900 nM. In turn, `CCCCCn1nc(-c2ccccc2)n(CC(=O)NNC(=O)Nc2cc(C(F)(F)F)cc(C(F)(F)F)c2)c1=O` returned an IC50 in assay [2] of 1.97 nM. The same measure, in the same setting: for `CCCCCn1nc(-c2ccccc2)n(CC(=O)NNC(=S)Nc2ccccc2Cl)c1=O` the value was 4680 nM.

On to `O=[N+]([O-])c1ccccc1/C=N/c1nnc(S)s1`, for which the IC50 in assay [1] turned out to be 670 nM.

In assay [1], `O=c1oc2ccccc2cc1C1=NN(c2nc(-c3ccc(Br)cc3)cs2)C(c2ccc(OCc3ccccc3)cc2)C1` (stereo unspecified) registered an IC50 of 970 nM. As for `CCCCCn1nc(-c2ccccc2)n(CC(=O)NNC(=O)Nc2ccc(C(F)(F)F)cc2)c1=O`, the IC50 in assay [2] is > 20000 nM.

In assay [1], `O=c1oc2ccccc2cc1C1=NN(c2nc(-c3ccc(Br)cc3)cs2)C(c2ccc([N+](=O)[O-])cc2)C1` (stereo unspecified) registered an IC50 of 130 nM. Same read-out and setting: for `COc1cc(/C=N/c2nnc(S)s2)cc(OC)c1O` the value was 473 nM. With `CCCCCn1nc(-c2ccccc2)n(CC(=O)NNC(=S)Nc2ccccc2Br)c1=O`, in assay [2], the IC50 is > 20000 nM. The same measure, in the same setting: for `CCCCCn1nc(-c2ccccc2)n(CC(=O)NNC(=O)Nc2cccc(Cl)c2)c1=O` the value was > 20000 nM.

`CCCCCn1nc(-c2ccccc2)n(CC(=O)NNC(=O)Nc2ccc(F)cc2F)c1=O`: the IC50 in assay [2] was > 20000 nM.

The compound `CC(C)(C)c1ccc(/C=N/c2nnc(S)s2)cc1` came in with an IC50 in assay [1] of 1400 nM.

`O=c1oc2ccccc2cc1C1=NN(c2nc(-c3ccc(Br)cc3)cs2)C(c2ccc(Br)cc2)C1` (stereo unspecified) registered an IC50 in assay [1] of 52 nM. In turn, `CCCCCn1nc(-c2ccccc2)n(CC(=O)NNC(=S)Nc2cccc(F)c2)c1=O` displayed an IC50 in assay [2] of 15200 nM. Regarding `CCCCCn1nc(-c2ccccc2)n(CC(=O)NNC(=O)Nc2ccccc2Br)c1=O`, the IC50 in assay [2] is > 20000 nM.

With `Fc1ccccc1/C=N/c1nnc(S)s1`, in assay [1], the IC50 turned out to be 760 nM.

As for `CCCCCn1nc(-c2ccccc2)n(CC(=O)NNC(=O)Nc2ccccc2Cl)c1=O`, the IC50 in assay [2] is > 20000 nM.

On to `CCCCCn1nc(-c2ccccc2)n(CC(=O)NNC(=S)Nc2cc(Cl)cc(Cl)c2)c1=O`, for which the IC50 in assay [2] was 170 nM. In assay [2], `CCCCCn1nc(-c2ccccc2)n(CC(=O)NNC(=S)Nc2ccc(Cl)cc2)c1=O` gave an IC50 of 190 nM.

Take `CCCCCn1nc(-c2ccccc2)n(CC(=O)NNC(=S)Nc2cccc(C(F)(F)F)c2)c1=O`: the IC50 in assay [2] was > 20000 nM. For the compound `COc1ccc(C2CC(c3cc4ccccc4oc3=O)=NN2c2nc(-c3ccc(Br)cc3)cs2)cc1O` (stereo unspecified), in assay [1], the IC50 came to 83 nM. For the compound `O=c1oc2ccccc2cc1C1=NN(c2nc(-c3ccc(Br)cc3)cs2)C(c2ccccc2O)C1` (stereo unspecified), the IC50 in assay [1] came out at 96 nM.

In turn, `CCCCCn1nc(-c2ccccc2)n(CC(=O)NNC(=S)Nc2ccc(C(F)(F)F)cc2)c1=O` displayed a 50% inhibitory concentration (IC50) in assay [2] of 1490 nM. As for `O=C1OC(c2ccc(Cl)cc2)=NC(=S)C1c1nn[nH]n1` (stereo unspecified), in assay [3], the IC50 amounted to 290 nM. With `CCCCCn1nc(-c2ccccc2)n(CC(=O)NNC(=S)Nc2ccccc2F)c1=O`, the IC50 in assay [2] is > 20000 nM.

As for `CCCCCn1nc(-c2ccccc2)n(CC(=O)NNC(=O)Nc2ccc(Br)cc2)c1=O`, the IC50 in assay [2] is > 20000 nM. Still for that read-out and setting: as for `CCCCCn1nc(-c2ccccc2)n(CC(=O)NNC(=O)Nc2ccc(Cl)cc2)c1=O`, the figure is > 20000 nM. `Cc1cccc(NC(=O)CSc2nnc(Cc3csc(N)n3)n2-c2ccccc2)c1C`: the IC50 in assay [3] stood at 2010 nM. Consider `Sc1nnc(/N=C/c2ccccc2)s1`, for which the IC50 in assay [1] was > 20000 nM.
